The results in this text go back to PubChem BioAssay AID1259411 (Chemical Carcinogenesis Research Information System (CCRIS), 2018).

Active and inactive are the calls of the source. No rule for the calls is given here.

This data set deals with rodent carcinogenicity bioassays, tumor incidence. The data set can be described thus: CCRIS carcinogenicity studies. The method in brief:
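Archive of carcinogenicity, mutagenicity, tumor promotion and tumor inhibition results drawn from journals, NCI reports and other sources, expert-reviewed; covers 1985-2011 and is no longer updated.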

With `Nc1ccc(N)c([N+](=O)[O-])c1`, the carcinogen call is, setting by setting: (Species: MOUSE, Strain/Sex: B6C3F1/FEMALE, Route: ORAL, Dose: 0, 2200, 4400 PPM IN DIET, Dose: 0, 2200, 4400 PPM IN DIET, Tumor Site: Type of Lesion: LIVER: HEPATOCELLULAR ADENOMA OR CARCINOMA) “active; positive”; (Species: MOUSE, Strain/Sex: B6C3F1/MALE, Route: ORAL, Dose: 0, 2200, 4400 PPM IN DIET, Dose: 0, 2200, 4400 PPM IN DIET) “inactive; negative”; (Species: RAT, Strain/Sex: F344/FEMALE, Route: ORAL, Dose: 0, 1100, 2200 PPM IN DIET, Dose: 0, 1100, 2200 PPM IN DIET) “inactive; negative”; (Species: RAT, Strain/Sex: F344/MALE, Route: ORAL, Dose: 0, 550, 1100 PPM IN DIET, Dose: 0, 550, 1100 PPM IN DIET) “inactive; negative”.
Regarding `CCOCCc1c(-c2ccccc2)nc(N)n2ncnc12`, the carcinogen call (Species: RAT, Strain/Sex: STRAIN-CD/FEMALE, Route: ORAL, Dose: 0, 50, 150, 450 MG/KG/D IN DIET FOR 97 WK (STUDY DURATION: 105 WK), Dose: 0, 50, 150, 450 MG/KG/D IN DIET FOR 97 WK (STUDY DURATION: 105 WK), Tumor Site: Type of Lesion: LIVER: ADENOMA OR CARCINOMA, MAMMARY GLAND: ADENOMA OR CARCINOMA, THYROID GLAND: ADENOMA, Tumor Site: Type of Lesion: LIVER: ADENOMA OR CARCINOMA, MAMMARY GLAND: ADENOMA OR CARCINOMA, THYROID GLAND: ADENOMA) is “active; positive” and the carcinogen call (Species: RAT, Strain/Sex: STRAIN-CD/MALE, Route: ORAL, Dose: 0, 50, 150, 450 MG/KG/D IN DIET FOR 97 WK (STUDY DURATION: 105 WK), Dose: 0, 50, 150, 450 MG/KG/D IN DIET FOR 97 WK (STUDY DURATION: 105 WK), Tumor Site: Type of Lesion: LIVER: ADENOMA OR CARCINOMA, THYROID GLAND: ADENOMA OR CARCINOMA) is “active; positive”.
For `Clc1cccc(-c2cccc(Cl)c2)c1`, the carcinogen call (Species: RAT, Strain/Sex: WISTAR/MALE, Route: ORAL, Dose: 0, 100 PPM IN DIET FOR DURATION OF STUDY (STUDY DURATION: 832 D)) is “inactive; negative”.
For `O=C1Nc2ccc(Cl)cc2C(c2ccccc2)=NC1O` (configuration not stated), the carcinogen call (Species: MOUSE, Strain/Sex: B6C3F1/FEMALE, Route: ORAL, Dose: 0, 125, 2500, 5000 PPM IN FEED FOR 104-105 WK (STUDY DURATION: 105 WK), Dose: 0, 125, 2500, 5000 PPM IN FEED FOR 104-105 WK (STUDY DURATION: 105 WK), Tumor Site: Type of Lesion: LIVER: HEPATOBLASTOMA, HEPATOCELLULAR ADENOMA, HEPATOCELLULAR CARCINOMA, THYROID: FOLLICULAR CELL ADENOMA) was “active; positive”; the carcinogen call (Species: MOUSE, Strain/Sex: B6C3F1/MALE, Route: ORAL, Dose: 0, 125, 2500, 5000 PPM IN FEED FOR 104-105 WK (STUDY DURATION: 105 WK), Dose: 0, 125, 2500, 5000 PPM IN FEED FOR 104-105 WK (STUDY DURATION: 105 WK), Tumor Site: Type of Lesion: LIVER: HEPATOBLASTOMA, HEPATOCELLULAR ADENOMA, HEPATOCELLULAR CARCINOMA) was “active; positive”; the carcinogen call (Species: MOUSE, Strain/Sex: SWISS-WEBSTER/FEMALE, Route: ORAL, Dose: 0, 2500, 5000 PPM IN FEED FOR 57 WK (STUDY DURATION: 57 WK), Dose: 0, 2500, 5000 PPM IN FEED FOR 57 WK (STUDY DURATION: 57 WK), Tumor Site: Type of Lesion: LIVER: HEPATOCELLULAR ADENOMA, HEPATOCELLULAR CARCINOMA) was “active; positive”; the carcinogen call (Species: MOUSE, Strain/Sex: SWISS-WEBSTER/MALE, Route: ORAL, Dose: 0, 2500, 5000 PPM IN FEED FOR 57 WK (STUDY DURATION: 57 WK), Dose: 0, 2500, 5000 PPM IN FEED FOR 57 WK (STUDY DURATION: 57 WK), Tumor Site: Type of Lesion: LIVER: HEPATOCELLULAR ADENOMA, HEPATOCELLULAR CARCINOMA) was “active; positive”; the carcinogen call (Species: MOUSE, Strain/Sex: SWISS/MALE,FEMALE, Route: ORAL, Dose: 0.05, 0.15% IN DIET FOR 9 MO, Tumor Site: Type of Lesion: LIVER: HEPATOCELLULAR ADENOMA) is “active; positive”; the carcinogen call (Species: RAT, Strain/Sex: F344/FEMALE, Route: ORAL, Dose: 0, 625, 2500, 5000 PPM FOR 105 WK (STUDY DURATION: 105 WK), Dose: 0, 625, 2500, 5000 PPM FOR 105 WK (STUDY DURATION: 105 WK)) was “inactive; negative”. Further, the carcinogen call is “inactive; negative” (Species: RAT, Strain/Sex: F344/FEMALE, Route: ORAL, Dose: 0, 625, 2500, 5000 PPM IN DIET FOR 105 WK (STUDY DURATION: 105 WK), Dose: 0, 625, 2500, 5000 PPM IN DIET FOR 105 WK (STUDY DURATION: 105 WK)); “inactive; negative” (Species: RAT, Strain/Sex: F344/FEMALE, Route: ORAL, Dose: 0, 10,000 PPM FOR 26 WK (STUDY DURATION: 105 WK)); “inactive; negative” (Species: RAT, Strain/Sex: F344/FEMALE, Route: ORAL, Dose: 0, 10000 PPM IN DIET FOR 26 WK (STUDY DURATION: 105 WK)); “equivocal” (Species: RAT, Strain/Sex: F344/MALE, Route: ORAL, Dose: 0, 625, 2500, 5000 PPM IN DIET FOR 105 WK (STUDY DURATION: 105 WK), Dose: 0, 625, 2500, 5000 PPM IN DIET FOR 105 WK (STUDY DURATION: 105 WK), Tumor Site: Type of Lesion: KIDNEY: RENAL TUBULE ADENOMA); “equivocal” (Species: RAT, Strain/Sex: F344/MALE, Route: ORAL, Dose: 0, 10000, PPM IN DIET FOR 26 WK (STUDY DURATION: 105 WK), Dose: 0, 10000, PPM IN DIET FOR 26 WK (STUDY DURATION: 105 WK), Tumor Site: Type of Lesion: KIDNEY: RENAL TUBULE ADENOMA); “active; positive” (Species: RAT, Strain/Sex: F344/MALE, Route: ORAL, Dose: 0, 10,000 PPM FOR 26 WK (STUDY DURATION: 105 WK), Tumor Site: Type of Lesion: KIDNEY: RENAL TUBULE ADENOMA).
Regarding `Nc1ccc(N)cc1`, the carcinogen call runs as follows: (Species: MOUSE, Strain/Sex: B6C3F1/FEMALE, Route: ORAL, Dose: 0, 625, 1250 PPM IN DIET, Dose: 0, 625, 1250 PPM IN DIET) “inactive; negative”; (Species: MOUSE, Strain/Sex: B6C3F1/MALE, Route: ORAL, Dose: 0, 625, 1250 PPM IN DIET, Dose: 0, 625, 1250 PPM IN DIET) “inactive; negative”; (Species: RAT, Strain/Sex: F344/FEMALE, Route: ORAL, Dose: 0, 625, 1250 PPM IN DIET, Dose: 0, 625, 1250 PPM IN DIET) “inactive; negative”; (Species: RAT, Strain/Sex: F344/MALE, Route: ORAL, Dose: 0, 625, 1250 PPM IN DIET, Dose: 0, 625, 1250 PPM IN DIET) “inactive; negative”.
As to `CCN(CC(=O)O)N=O`, the carcinogen call by setting is: (Species: MOUSE, Strain/Sex: BALB/C/MALE, Route: ORAL, Dose: 0, 1000, 2000 PPM IN DRINKING WATER FOR 2 WK (STUDY DURATION: 52 WK), Dose: 0, 1000, 2000 PPM IN DRINKING WATER FOR 2 WK (STUDY DURATION: 52 WK)) “inactive; negative”; (Species: RAT, Strain/Sex: WISTAR/MALE, Route: ORAL, Dose: 0, 1000, 2000 PPM IN DRINKING WATER FOR 2 WK (STUDY DURATION: 52 WK), Dose: 0, 1000, 2000 PPM IN DRINKING WATER FOR 2 WK (STUDY DURATION: 52 WK)) “inactive; negative”.
With `C#C[C@]1(O)CC[C@H]2[C@@H]3CCC4=CC(=O)CC[C@@H]4[C@H]3CC[C@@]21C`, where the note is “Species: MOUSE, Route: ORAL, Tumor Site: Type of Lesion: LIVER, LUNG”, the carcinogen call is “active; positive”.
With `S=[Se]`, the carcinogen call by setting is: (Species: MOUSE, Strain/Sex: B6C3F1/FEMALE, Route: GAVAGE, Dose: 0, 20, 100 MG/KG IN 0.5% AQ CMC, Dose: 0, 20, 100 MG/KG IN 0.5% AQ CMC, Tumor Site: Type of Lesion: LUNG: ALVEOLAR/BRONCHIOLAR ADENOMA OR CARCINOMA, LIVER: HEPATOCELLULAR CARCINOMA) “active; positive”; (Species: MOUSE, Strain/Sex: B6C3F1/MALE, Route: GAVAGE, Dose: 0, 20, 100 MG/KG IN 0.5% AQ CMC, Dose: 0, 20, 100 MG/KG IN 0.5% AQ CMC) “inactive; negative”; (Species: MOUSE, Strain/Sex: ICR/FEMALE, Route: DERMAL, Dose: 0, 0.5, 1.0 MG/KG IN SALINE SOLN CONT 0.5% CMC 3/WK FOR 86 WK, Dose: 0, 0.5, 1.0 MG/KG IN SALINE SOLN CONT 0.5% CMC 3/WK FOR 86 WK) “inactive; negative”; (Species: MOUSE, Strain/Sex: ICR/MALE, Route: DERMAL, Dose: 0, 0.5, 1.0 MG/KG IN SALINE SOLN CONT 0.5% CMC 3/WK FOR 86 WK, Dose: 0, 0.5, 1.0 MG/KG IN SALINE SOLN CONT 0.5% CMC 3/WK FOR 86 WK) “inactive; negative”; (Species: RAT, Strain/Sex: F344/FEMALE, Route: GAVAGE, Dose: 0, 3, 15 MG/KG IN 0.5% AQ CMC, Dose: 0, 3, 15 MG/KG IN 0.5% AQ CMC, Tumor Site: Type of Lesion: LIVER: HEPATOCELLULAR CARCINOMA OR NEOPLASTIC NODULE) “active; positive”; (Species: RAT, Strain/Sex: F344/MALE, Route: GAVAGE, Dose: 0, 3, 15 MG/KG IN 0.5% AQ CMC, Dose: 0, 3, 15 MG/KG IN 0.5% AQ CMC, Tumor Site: Type of Lesion: LIVER: HEPATOCELLULAR CARCINOMA OR NEOPLASTIC NODULE) “active; positive”.
